Source: PMC9014415, “Repositioning of a Diaminothiazole Series Confirmed to Target the Cyclin-Dependent Kinase CRK12 for Use in the Treatment of African Animal Trypanosomiasis” (Journal of Medicinal Chemistry, 2022)

How the values were obtained:
[1] = tested on: T. b. brucei; test: In vitro drug sensitivity assay, bloodstream-form T. b. brucei; format: cell-based; conditions: Trypanosoma brucei, n = 12
Experimental: 1.1 In vitro drug sensitivity assays - Trypanosoma brucei brucei
Drug sensitivity assays were carried out with bloodstream-form (BSF) T. b. brucei ‘single marker’ S427 cells grown at 37°C with 5% CO2 in HMI-9T medium,1 as previously described.2 1.2 In vitro drug sensitivity assays - Trypanosoma congolense
EC50 values for test compounds against T. congolense (IL3000 strain) were conducted as previously described3 with minor modifications.4 Briefly, trypanosome cell densities were determined using a CASY cell counter (Schärfe) and diluted to a seeding density of 2 x 105 trypanosomes/mL. […] Absorbance was read using a SpectraMax (Gemini XS) fluorescence reader at an excitation wavelength of 536 nm and an emission wavelength of 588 nm. EC50 values were determined using SOFTmax Pro 5.2 analysis software. […]
Since T. vivax cannot be cultured axenically, BSF trypanosomes were harvested from an infected mouse with high parasitemia via cardiac puncture and used directly in ex vivo assays. EC50 values were determined against T, vivax (STIB 719/ ILRAD 560) as previously described3, with minor modifications. Briefly, cell densities were determined using a Neubauer chamber and then diluted to a seeding density of 4 x 105 trypanosomes / mL. […] Absorbance was read using a SpectraMax (Gemini XS) fluorescence reader at an excitation wavelength of 536 nm and an emission wavelength of 588 nm. […]

[2] = in vivo
[3] = Comparative cattle PK, IM compared to SC (NorthWest Biopharm); format: in vivo; conditions: Aberdeen Angus crossbreed and Limousin crossbreed, bovine, blood, 5 mg/kg free base
Experimental: Kolliphor EL, N-methyl pyrrolidone, 2-pyrrolidone and 11% water suitable for injection) […]
Comparative cattle PK (Northwestern Biopharm)
The pharmacokinetics for compound 2 when dosed as free base in the best tolerated formulation: […]
Kolliphor EL, N-methyl pyrrolidone, 2-pyrrolidone and 11% water at 5 mg/kg was assessed, IM
compared to SC. Bioanalysis of blood
samples was conducted at the University of Dundee. […]

[4] = tested on: T. congolense (KONT2/133); test: Cattle efficacy for compound 2, intravenous infusion (Clinvet), T. congolense; format: in vivo, Trypanosoma congolense; conditions: Friesian-Holstein cattle infected with T. congolense; n = 4; at 100 days
Experimental: Unfortunately, an injection site tolerability issue arose during the pharmacokinetic study in cattle that was not evident in rats. […] To circumvent these issues, compound 2 was assessed in an in vivo proof of concept efficacy study in Friesian-Holstein cattle using an IV infusion regimen. The study was conducted in four animals infected with T. congolense (KONT2/133) and four animals infected with T. vivax (STIB719). Three additional animals infected with each strain formed the vehicle control groups and were dosed IV once daily with saline. Pharmacokinetic modeling was used to define a dosing regimen that mimics the blood concentration–time profile that delivered cure in mice (10 mg/kg SC once daily for 2 days, with a Ctrough of >20 ng/mL (>38 nM)). A continuous infusion over 36 h and two loading doses 24 h apart were required. […]
Response to treatment was determined by monitoring parasitaemia twice a week until day 21. […]
In each of the cattle efficacy studies (3.3, 3.4 and 3.5), efficacy was assessed primarily on absence of recrudescence of parasitaemia for 100 days after treatment administration together with improvements in Packed Cell Volume, body weight and clinical signs of infected compared with uninfected animals. […]

SMILES	EC50 [1] [nM]	Mouse oral MTD ([2]; po, 3 days) [mg/kg]	Tolerability, maximum tolerated dose study ([2]; mouse, sc)	AUC ([3]; IM) [ng·h/mL]	Cmax ([3]; IM) [ng/mL]	Tmax ([3]; IM) [h]	AUC ([3]; SC) [ng·h/mL]	Cmax ([3]; SC) [ng/mL]	Tmax ([3]; SC) [h]	Efficacy in cattle, IV bolus and infusion [4]
CC(C)CS(=O)(=O)N[C@H]1CC[C@H](Nc2nc(N)c(C(=O)c3c(F)cccc3F)s2)CC1 [Compound 1, N-((trans)-4-((4-Amino-5-(2,6-difluorobenzoyl)thiazol-2-yl)amino)cyclohexyl)-2-methylpropane-1-sulfonamide]	1.3	>300	No tolerability issues							
CC(C)CS(=O)(=O)N[C@H]1CC[C@H](Nc2nc(N)c(C(=O)c3c(F)cc(CN(C)C)cc3F)s2)CC1 [Compound 2, N-(trans)-[4-[[4-Amino-5-[4-(dimethylaminomethyl)-2,6-difluoro-benzoyl]thiazol-2-yl]amino]cyclohexyl]-2-methyl-propane-1-sulfonamide]				3170	360	0.5	967	86	3	cured
